Measured values reported in paper PMC11714206, “Massively Parallel Screening of Toll/Interleukin‐1 Receptor (TIR)‐Derived Peptides Reveals Multiple Toll‐Like Receptors (TLRs)‐Targeting Immunomodulatory Peptides” (Advanced Science, 2024).
Values joined by “and” are separate entries in the source; they are usually repeats but may differ in a detail not shown here. Equal entries are not always repeated.

Molecular target: T1, MAL^TIR (Homo sapiens, UniProt P58753)
T1 construct: MAL (residues 79–221); 6xHis; made in house; host or cells: E. coli BL21 (DE3)
Assay: T‐Surf phage library (P8 and P3) selection against MAL^TIR, four rounds, NGS read counts
Format: binding
Conditions: for P3_MAL Rank (after) / P3_MAL Rank (before): P3 library; for P8_MAL Rank (after) / P8_MAL Rank (before): P8 library; for Population: 4th round of selection against MAL TIR, share of NGS reads
Summary of the method: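 P8 and P3 T‐Surf libraries panned against plate-coated TIR domains (5 µg mL^−1), 1 h binding at RT, acid elution and TG1/helper-phage amplification per round. After four rounds, pools were PCR-barcoded and sequenced (NovaSeq, 100 bp paired-end, Phred ≥30); peptides ranked by read counts.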

[1] = selection against MAL TIR, rank by count after grouping
[2] = selection against MAL TIR, rank by count before grouping
[3] = selection against MAL, rank after grouping
[4] = selection against MAL, rank before grouping
[5] = P3_MAL pool: P3 T-Surf phage library
[6] = P8_MAL: rank by count after grouping
[7] = P8_MAL: rank by count before grouping
[8] = P3_MAL: rank by count after grouping
[9] = P3_MAL: rank by count before grouping
[10] = selection against MAL, rank by count after grouping
[11] = selection against MAL, rank by count before grouping
[12] = 4R selection against MAL, rank after grouping
[13] = 4R selection against MAL, rank before grouping
[14] = P8_MAL pool: P8 T-Surf phage library

T1 sequence (P58753 79-221): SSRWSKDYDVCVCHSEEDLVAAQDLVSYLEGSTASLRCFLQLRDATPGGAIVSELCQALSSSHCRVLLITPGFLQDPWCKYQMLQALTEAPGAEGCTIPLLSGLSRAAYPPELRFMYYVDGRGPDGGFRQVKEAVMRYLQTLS

LKAERWRQALEKAGKL
P3_MAL Rank (after) [1]: 226 | P3_MAL Rank (before) [2]: 2304

LFLWDSLKQPLRSDGR
P8_MAL Rank (after) [1]: 224 | P8_MAL Rank (before) [2]: 2143

LVAHEISKKMKIFCDH
P3_MAL Rank (after) [3]: 490 | P3_MAL Rank (before) [4]: 2102

DLFLSKLSQHILKREK
Population [5]: 0.00376%

WFWDKLKYALPHRYEP
Rank (after) [6]: 113 | Rank (before) [7]: 556

LELGDPYFWSKLRYAM
Rank (after) [8]: 453 | Rank (before) [9]: 2129

RLRKWKGALHHFLSWG
P3_MAL Rank (after) [10]: 728 | P3_MAL Rank (before) [11]: 2544

NQCRNALTPAAKLSSL
P3_MAL Rank (after) [3]: 538 | P3_MAL Rank (before) [4]: 3423

GCYERLVSLILRDTKV
Rank (after) [6]: 121 | Rank (before) [7]: 1571

NQWRNELNAAANLSGW
P3_MAL Rank (after) [1]: 255 | P3_MAL Rank (before) [2]: 3406

RLQKWKEALHQIHSRV
Rank (after) [8]: 189 | Rank (before) [9]: 2551

AFLYAFLKNLTHPTNF
P8_MAL Rank (after) [10]: 683 | P8_MAL Rank (before) [11]: 1813

KEVEGWRDALPHRYEP
P3_MAL Rank (after) [1]: 191 | P3_MAL Rank (before) [2]: 1095

YAFTGHLHHYFAAKGIKM
Rank (after) [8]: 385 | Rank (before) [9]: 1428

SFLHFLLLSRPETAYI
Rank (after) [6]: 395 | Rank (before) [7]: 1438

NQWRDPLTGDMILSGW
P3_MAL Rank (after) [10]: 767 | P3_MAL Rank (before) [11]: 3336

NQCRNALTAAANLKGW
Rank (after) [8]: 146 | Rank (before) [9]: 3327

RGFLSHLRHHLPAKDQ
P3_MAL Rank (after) [3]: 498 | P3_MAL Rank (before) [4]: 2380

SSFREGLWRLMELSNK
P3_MAL Rank (after) [12]: 593 | P3_MAL Rank (before) [13]: 3169

VEPTQVRTQSGAAENA
P3_MAL Rank (after) [10]: 753 | P3_MAL Rank (before) [11]: 1651

YAFTGHRHRYLVKRGV
Rank (after) [8]: 179 | Rank (before) [9]: 1445

ERILNQLRRSSQSIAK
Rank (after) [8]: 421 | Rank (before) [9]: 2078

AFLYTFLINPTHPTNS
P8_MAL Rank (after) [1]: 255 | P8_MAL Rank (before) [2]: 1859

DWFVSKLSQQILQREK
P3_MAL Rank (after) [10]: 729 | P3_MAL Rank (before) [11]: 1862

SFLYTFLITLTHPTTF
P8_MAL Rank (after) [1]: 266 | P8_MAL Rank (before) [2]: 1447

YAARANSGFHTFRDND
P3_MAL Rank (after) [10]: 740 | P3_MAL Rank (before) [11]: 1489

KNLFYDLVSKNIRTFM
P3_MAL Rank (after) [10]: 712 | P3_MAL Rank (before) [11]: 3473

LFFWKSLKQLLRSDSR
Rank (after) [6]: 124 | Rank (before) [7]: 2128

DDAVWVYEHLVKFLEG
P8_MAL Rank (after) [12]: 617 | P8_MAL Rank (before) [13]: 1988

NQWRNSLTAAANLSGR
Rank (after) [8]: 176 | Rank (before) [9]: 3342

AFLCTQLNNVTDTPTL
Rank (after) [6]: 442 | Rank (before) [7]: 1756

RGFLYQAFAREGFKIFM
P3_MAL Rank (after) [12]: 581 | P3_MAL Rank (before) [13]: 2353

LFFWESLKQLLRAMA
Rank (after) [6]: 473 | Rank (before) [7]: 2095

AFLYSLLFNRTHPNYF
P8_MAL Rank (after) [10]: 702 | P8_MAL Rank (before) [11]: 1809

WFLFTFLINLTHPTNF
P8_MAL Rank (after) [3]: 523 | P8_MAL Rank (before) [4]: 1314

TSFREGLLRLLELSKK
P3_MAL Rank (after) [10]: 754 | P3_MAL Rank (before) [11]: 3239

AFLYTFLVNLTHPPNF
Rank (after) [6]: 134 | Rank (before) [7]: 1827

HHKGSYGEALAEDEER
P3_MAL Rank (after) [12]: 580 | P3_MAL Rank (before) [13]: 2826

HFFGFN*KAFWAKPAX
Population [14]: 0.00309%

LFFWEILKQLLRSAGR
Rank (after) [6]: 454 | Rank (before) [7]: 2074

AFLFTFLINLTHPSNF
Rank (after) [6]: 450 | Rank (before) [7]: 1803

KMQKWKDALYEAANPT
P3_MAL Rank (after) [10]: 734 | P3_MAL Rank (before) [11]: 3683

NQWRNALTAAANQSGL
Rank (after) [8]: 161 | Rank (before) [9]: 3383

NAFTGNLHRYLVQRGV
P3_MAL Rank (after) [1]: 287 | P3_MAL Rank (before) [2]: 3276

DHHLNPPPGKAIKPEMLG
Rank (after) [8]: 442 | Rank (before) [9]: 1951

*FYERLVSLILRDTKV
Population [14]: 0.00402% and 0.00278%

TFLCHQYNALVQAGIH
P8_MAL Rank (after) [1]: 219 | P8_MAL Rank (before) [2]: 2547

YQWRNALTAAANLRGW
P3_MAL Rank (after) [1]: 238 | P3_MAL Rank (before) [2]: 1525

AFFWEQLRTVLGKPSI
P8_MAL Rank (after) [1]: 194 | P8_MAL Rank (before) [2]: 1684

AYLNTFLINLTHPTNF
Rank (after) [6]: 149 | Rank (before) [7]: 1951

AVLYTFLINLTHPTKF
Rank (after) [6]: 460 | Rank (before) [7]: 1954

LVFWESLKHLLRSDDR
P8_MAL Rank (after) [12]: 636 | P8_MAL Rank (before) [13]: 2163

RLMKWKEALHPFHSWV
Rank (after) [8]: 180 | Rank (before) [9]: 2553

RAFSSHLRHHLLAKDQ
P3_MAL Rank (after) [10]: 678 | P3_MAL Rank (before) [11]: 2463

RNFVAYLFRALANKGI
Population [14]: 0.00371%

YTALTNSASHTFRGND
Rank (after) [8]: 444 | Rank (before) [9]: 1551

VEPTQVRKQRCGGKC
P3_MAL Rank (after) [10]: 760 | P3_MAL Rank (before) [11]: 1661

AFFWAQLKNVLGNPTM
Population [14]: 0.00278%

YFLHFLLFSLPENECI
P8_MAL Rank (after) [3]: 544 | P8_MAL Rank (before) [4]: 1474

SSFSEGLWRRLELSKK
P3_MAL Rank (after) [12]: 594 | P3_MAL Rank (before) [13]: 3202

LFFWDSLKHLLRCDGC
P8_MAL Rank (after) [12]: 593 | P8_MAL Rank (before) [13]: 2068

AFLYTFLINLTHPSNF
Population [14]: 0.00309%

LVAHAISKKMKLFATI
Rank (after) [8]: 411 | Rank (before) [9]: 2093

KELLHKWKLALTQTPN
P3_MAL Rank (after) [12]: 621 | P3_MAL Rank (before) [13]: 3593

LRKIADLSGWTLKSFR
P8_MAL Rank (after) [10]: 677 | P8_MAL Rank (before) [11]: 2165

RNFVAYLFQALAKPA
Rank (after) [6]: 164 | Rank (before) [7]: 2209

NYASSSWALDELWNIF
P8_MAL Rank (after) [3]: 502 | P8_MAL Rank (before) [4]: 2655

GSFREGLWRLLELSKK
Population [5]: 0.00639%

AFFWAKLKRVLGNPTL
P8_MAL Rank (after) [3]: 525 | P8_MAL Rank (before) [4]: 1652

RVFLSHPRHHLQAKDP
P3_MAL Rank (after) [10]: 700 | P3_MAL Rank (before) [11]: 2346

TFLGHLYNALVQAGIH
Population [14]: 0.00463% and 0.00432% and 0.00402%

RGFLCHLRHHLQATDH
P3_MAL Rank (after) [10]: 706 | P3_MAL Rank (before) [11]: 2352

KDPDNYKFAIHERDFP
P3_MAL Rank (after) [1]: 207 | P3_MAL Rank (before) [2]: 3542

LFFWESLKPLPRRDGR
Rank (after) [6]: 467 | Rank (before) [7]: 2088

EKIVEWVWEKAHNRFK
P3_MAL Rank (after) [10]: 770 | P3_MAL Rank (before) [11]: 2080

PNLRTNVLNYLMRPKT
P3_MAL Rank (after) [1]: 266 | P3_MAL Rank (before) [2]: 2696

MVRVKAFHKRLKTALG
Rank (after) [8]: 438 | Rank (before) [9]: 2922

AYANFRQGLLRLPELLR
P8_MAL Rank (after) [1]: 278 | P8_MAL Rank (before) [2]: 1946

PNLRTTVPTYLMRTKT
P3_MAL Rank (after) [10]: 726 | P3_MAL Rank (before) [11]: 2689

HQTFWDRLCAKLKAPI
P3_MAL Rank (after) [10]: 705 | P3_MAL Rank (before) [11]: 2898

DSKLKKGESIAPALLR
P8_MAL Rank (after) [1]: 215 | P8_MAL Rank (before) [2]: 1986
